Data published in patent US20240166624A1, “PPARG INVERSE AGONISTS AND USES THEREOF” (Flare Therapeutics Inc., priority 2021, published 2024).

Experiments:
[1] = target: T1, PPARG/RXRA LBD heterodimer (Homo sapiens, UniProt P37231); assay: PPARγ-NCOR1 recruitment assay (TR-FRET, biotinylated NCOR1 ID2 peptide); type: biochemical; details: 80 nM Rosiglitazone, 3 hours, read-out: PPARG-NCOR recruitment assay EC50
T1 construct: His-TEV-Q203-Y477; Uniprot ID P37231-2; made in house; host or cells: E. coli
How it was run: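 2 nM each of E. coli-expressed PPARG LBD (Q203-Y477) and RXRA LBD (WT or S427F, E228-T462) with biotinylated NCOR1 ID2 peptide, incubated 3 h; TR-FRET read at Ex/Em 615/665. Ratios normalized to DMSO (0%) and T0070907 maximum (100%) for EC50 and maximal recruitment.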
T1 sequence (O75376 2251-2273 partner, one chain of several): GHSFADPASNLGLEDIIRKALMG

[2] = system: ANGPTL4, a PPARG target gene, in HT1197 (RXRA S427F mutation) cells; assay: Bladder cancer pharmacodynamic assay, HT1197 cell assay (qPCR of ANGPTL4); type: cell-based; details: Homo sapiens, 24 hours, 100 nM compound, relative to DMSO control
How it was run: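 5637 (PPARG amplified) and HT1197 (RXRA S427F) cells treated 24 h with PPARG inverse agonists. FABP4 and ANGPTL4 expression measured by qPCR, normalised to TBP, and reported relative to DMSO control by ΔΔCt.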

[3] = target: T2, PPARG/RXRA LBD heterodimer (Homo sapiens, UniProt P37231); assay: PPARγ-MED1 blockade assay (TR-FRET, biotinylated MED1 LxxLL peptide); type: biochemical; details: WT PPARG LBD/WT RXRA LBD, 80 nM Rosiglitazone, 3 hours
T2 construct: His-TEV-Q203-Y477; Uniprot ID P37231-2; made in house; host or cells: E. coli
T2 sequence (P37231 203-477 isoform P37231-2): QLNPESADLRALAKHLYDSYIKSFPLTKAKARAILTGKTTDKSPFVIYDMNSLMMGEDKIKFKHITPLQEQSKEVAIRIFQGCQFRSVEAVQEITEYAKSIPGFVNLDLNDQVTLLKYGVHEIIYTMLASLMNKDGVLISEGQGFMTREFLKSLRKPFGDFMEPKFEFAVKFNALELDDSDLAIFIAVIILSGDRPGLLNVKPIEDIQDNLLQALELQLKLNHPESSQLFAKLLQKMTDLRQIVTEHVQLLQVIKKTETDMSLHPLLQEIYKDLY
T2 sequence (P19793 228-462 partner limits assumed): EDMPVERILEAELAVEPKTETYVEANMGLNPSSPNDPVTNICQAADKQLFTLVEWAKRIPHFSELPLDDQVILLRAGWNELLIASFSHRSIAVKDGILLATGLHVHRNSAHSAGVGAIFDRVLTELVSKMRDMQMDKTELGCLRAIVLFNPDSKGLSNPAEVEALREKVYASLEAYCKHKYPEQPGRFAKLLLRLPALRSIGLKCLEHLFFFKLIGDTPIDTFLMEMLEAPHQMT
How it was run: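 TR-FRET measuring biotinylated MED1 LxxLL peptide association with 2 nM each His-PPARG LBD (Q203-Y477) and Flag-RXRA LBD (E228-T462), E. coli expressed. Read after 3 h incubation; ratios normalized to DMSO (0%) and GW9662 minimum (100%) for IC50 and maximal MED1 repulsion.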

EC50 [1] [nM]	EC50 [3] [nM]	Compound	inhibition at 0.1 µM [2] [%]
100 to 1000	100 to 1000	N#Cc1ccc(Cl)c(-c2cc(=O)c3c(F)c(-c4ccc(CC(=O)O)cc4)c(F)cc3[nH]2)c1 [Example 76, 2-(4-(2-(2-chloro-5-cyanophenyl)-5,7-difluoro-4-oxo-1,4-dihydroquinolin-6-yl)phenyl)acetic acid]	39
1000 to 10000	> 10000	CN(C)C(=O)c1cc(-c2c(F)cc3[nH]c(-c4cc(C#N)ccc4Cl)cc(=O)c3c2F)ccn1 [Example 88, 4-(2-(2-chloro-5-cyanophenyl)-5,7-difluoro-4-oxo-1,4-dihydroquinolin-6-yl)-N,N-dimethylpicolinamide]	41
100 to 1000	100 to 1000	CO[C@@H]1CCN(c2c(F)cc3[nH]c(-c4cc(C#N)ccc4Cl)cc(=O)c3c2F)C1 [Example 106, (R)-4-chloro-3-(5,7-difluoro-6-(3-methoxypyrrolidin-1-yl)-4-oxo-1,4-dihydroquinolin-2-yl)benzonitrile]	75
1000 to 10000	1000 to 10000	CN(C)C1CN(c2c(F)cc3[nH]c(-c4cc(C#N)ccc4Cl)cc(=O)c3c2F)C1 [Example 100, 4-chloro-3-(6-(3-(dimethylamino)azetidin-1-yl)-5,7-difluoro-4-oxo-1,4-dihydroquinolin-2-yl)benzonitrile]	87
100 to 1000	100 to 1000	Cc1cc(-c2c(F)cc3[nH]c(-c4cc(C#N)ccc4Cl)cc(=O)c3c2F)cc(C)n1 [Example 43, 4-chloro-3-(6-(2,6-dimethylpyridin-4-yl)-5,7-difluoro-4-oxo-1,4-dihydroquinolin-2-yl)benzonitrile]	75
1000 to 10000	1000 to 10000	N#Cc1ccc(Cl)c(-c2cc(=O)c3c(F)c(N4CCS(=O)(=O)CC4)c(F)cc3[nH]2)c1 [Example 110, 4-chloro-3-(6-(1,1-dioxidothiomorpholino)-5,7-difluoro-4-oxo-1,4-dihydroquinolin-2-yl)benzonitrile]	37
100 to 1000	100 to 1000	N#Cc1ccc(Cl)c(-c2cc(=O)c3c(F)c(-c4cc[nH]n4)c(F)cc3[nH]2)c1 [Example 97, 4-chloro-3-(5,7-difluoro-4-oxo-6-(1H-pyrazol-3-yl)-1,4-dihydroquinolin-2-yl)benzonitrile]	52
100 to 1000	100 to 1000	COCCn1ccc(-c2c(F)cc3[nH]c(-c4cc(C#N)ccc4Cl)cc(=O)c3c2F)n1 [Example 72, 4-chloro-3-(5,7-difluoro-6-(1-(2-methoxyethyl)-1H-pyrazol-3-yl)-4-oxo-1,4-dihydroquinolin-2-yl)benzonitrile]	79
100 to 1000	100 to 1000	CO[C@H]1CCN(c2c(F)cc3[nH]c(-c4cc(C#N)ccc4Cl)cc(=O)c3c2F)C1 [Example 104, (S)-4-chloro-3-(5,7-difluoro-6-(3-methoxypyrrolidin-1-yl)-4-oxo-1,4-dihydroquinolin-2-yl)benzonitrile]	78
1000 to 10000	1000 to 10000	CN(C)C(=O)c1cccc(-c2c(F)cc3[nH]c(-c4cc(C#N)ccc4Cl)cc(=O)c3c2F)n1 [Example 85, 6-(2-(2-chloro-5-cyanophenyl)-5,7-difluoro-4-oxo-1,4-dihydroquinolin-6-yl)-N,N-dimethylpicolinamide]	59
100 to 1000	100 to 1000	N#Cc1ccc(Cl)c(-c2cc(=O)c3c(F)c(-c4cc[nH]c(=O)c4)c(F)cc3[nH]2)c1 [Example 54, 4-chloro-3-(5,7-difluoro-4-oxo-6-(2-oxo-1,2-dihydropyridin-4-yl)-1,4-dihydroquinolin-2-yl)benzonitrile]	20
100 to 1000	100 to 1000	CNC(=O)c1cccc(-c2c(F)cc3[nH]c(-c4cc(C#N)ccc4Cl)cc(=O)c3c2F)c1 [Example 78, 3-(2-(2-chloro-5-cyanophenyl)-5,7-difluoro-4-oxo-1,4-dihydroquinolin-6-yl)-N-methylbenzamide]	36
1000 to 10000	1000 to 10000	N#Cc1ccc(Cl)c(-c2cc(=O)c3c(F)c(C4CCNCC4)c(F)cc3[nH]2)c1 [Example 94, 4-chloro-3-(5,7-difluoro-4-oxo-6-(piperidin-4-yl)-1,4-dihydroquinolin-2-yl)benzonitrile]	27
> 10000	100 to 1000	Cc1c(F)cc(F)c2c(=O)cc(-c3cc(C#N)ccc3Cl)[nH]c12 [Example 28, 4-chloro-3-(5,7-difluoro-8-methyl-4-oxo-1,4-dihydroquinolin-2-yl)benzonitrile]	0
100 to 1000	100 to 1000	N#Cc1ccc(Cl)c(-c2cc(=O)c3c(F)c(N4CCN(CC(F)(F)F)CC4)c(F)cc3[nH]2)c1 [Example 20, 4-chloro-3-(5,7-difluoro-4-oxo-6-(4-(2,2,2-trifluoroethyl)piperazin-1-yl)-1,4-dihydroquinolin-2-yl)benzonitrile]	91
100 to 1000	100 to 1000	N#Cc1ccc(Cl)c(-c2cc(=O)c3c(Cl)cc(F)cc3[nH]2)c1 [Example 18, 4-chloro-3-(5-chloro-7-fluoro-4-oxo-1,4-dihydroquinolin-2-yl)benzonitrile]	83
1000 to 10000	1000 to 10000	N#Cc1ccc(Cl)c(-c2cc(=O)c3c(F)c(-c4ccc(C(=O)O)cc4)c(F)cc3[nH]2)c1 [Example 75, 4-(2-(2-chloro-5-cyanophenyl)-5,7-difluoro-4-oxo-1,4-dihydroquinolin-6-yl)benzoic acid]	20
10 to 100	10 to 100	N#Cc1ccc(Cl)c(-c2cc(=O)c3c(F)c(-c4c[nH]c(C(F)(F)F)n4)c(F)cc3[nH]2)c1 [Example 67, 4-chloro-3-(5,7-difluoro-4-oxo-6-(2-(trifluoromethyl)-1H-imidazol-4-yl)-1,4-dihydroquinolin-2-yl)benzonitrile]	22
100 to 1000	100 to 1000	CN(C)C(=O)c1cc(-c2c(F)cc3[nH]c(-c4cc(C#N)ccc4Cl)cc(=O)c3c2F)ccc1C(F)(F)F [Example 89, 5-(2-(2-chloro-5-cyanophenyl)-5,7-difluoro-4-oxo-1,4-dihydroquinolin-6-yl)-N,N-dimethyl-2-(trifluoromethyl)benzamide]	56
1000 to 10000	1000 to 10000	CN(C)CCn1cc(-c2c(F)cc3[nH]c(-c4cc(C#N)ccc4Cl)cc(=O)c3c2F)cn1 [Example 52, 4-chloro-3-(6-(1-(2-(dimethylamino)ethyl)-1H-pyrazol-4-yl)-5,7-difluoro-4-oxo-1,4-dihydroquinolin-2-yl)benzonitrile]	29
1000 to 10000	1000 to 10000	CN(C)[C@@H]1CCN(c2c(F)cc3[nH]c(-c4cc(C#N)ccc4Cl)cc(=O)c3c2F)C1 [Example 109, (R)-4-chloro-3-(6-(3-(dimethylamino)pyrrolidin-1-yl)-5,7-difluoro-4-oxo-1,4-dihydroquinolin-2-yl)benzonitrile]	65
1000 to 10000	1000 to 10000	CN(C)C(=O)[C@H]1CCN(c2c(F)cc3[nH]c(-c4cc(C#N)ccc4Cl)cc(=O)c3c2F)C1 [Example 117, (S)-1-(2-(2-chloro-5-cyanophenyl)-5,7-difluoro-4-oxo-1,4-dihydroquinolin-6-yl)-N,N-dimethylpyrrolidine-3-carboxamide]	79
1000 to 10000	1000 to 10000	CN(C)C(=O)CCc1c(F)cc2[nH]c(-c3cc(C#N)ccc3Cl)cc(=O)c2c1F [Example 84, 3-(2-(2-chloro-5-cyanophenyl)-5,7-difluoro-4-oxo-1,4-dihydroquinolin-6-yl)-N,N-dimethylpropanamide]	67
100 to 1000	100 to 1000	CS(=O)(=O)c1ccc(-c2c(F)cc3[nH]c(-c4cc(C#N)ccc4Cl)cc(=O)c3c2F)cc1 [Example 39, 4-chloro-3-(5,7-difluoro-6-(4-(methylsulfonyl)phenyl)-4-oxo-1,4-dihydroquinolin-2-yl)benzonitrile]	33
